# Assay results from PMC7497630, “Coibamide A Targets Sec61 to Prevent Biogenesis of Secretory and Membrane Proteins” (ACS Chemical Biology, 2020).
# Bridge positions count the residues as written; N and C are the ends. Square brackets hold non-standard residues; d marks the D form. Peptide text beside a SMILES is read from it. * marks the point of attachment. Phe(4-CF3-diazirinyl) = N[C@@H](Cc1ccc(C2(C(F)(F)F)N=N2)cc1)C(=O)O; NMe2Val = CC(C)[C@@H](C(=O)*)N(C)C; NMeI = CC[C@H](C)[C@H](NC)C(=O)O; NMeT = CN[C@H](C(=O)O)[C@@H](C)O; NMeL = CN[C@@H](CC(C)C)C(=O)O; NMePra = C#CC[C@H](NC)C(=O)O; dHiv = CC(C)[C@@H](O)C(=O)O; NMeS = CN[C@@H](CO)C(=O)O; Pra = C#CC[C@H](N)C(=O)O; dNMeA = CN[C@H](C)C(=O)O
# Legend:
# [1] = molecular target: Sec61α in U87-MG glioblastoma cells (Homo sapiens, UniProt P61619); test: Cellular thermal shift assay; format: cell-based; settings: intact U87-MG cells
# Chain of Sec61α in U87-MG glioblastoma cells (P61619 whole entry): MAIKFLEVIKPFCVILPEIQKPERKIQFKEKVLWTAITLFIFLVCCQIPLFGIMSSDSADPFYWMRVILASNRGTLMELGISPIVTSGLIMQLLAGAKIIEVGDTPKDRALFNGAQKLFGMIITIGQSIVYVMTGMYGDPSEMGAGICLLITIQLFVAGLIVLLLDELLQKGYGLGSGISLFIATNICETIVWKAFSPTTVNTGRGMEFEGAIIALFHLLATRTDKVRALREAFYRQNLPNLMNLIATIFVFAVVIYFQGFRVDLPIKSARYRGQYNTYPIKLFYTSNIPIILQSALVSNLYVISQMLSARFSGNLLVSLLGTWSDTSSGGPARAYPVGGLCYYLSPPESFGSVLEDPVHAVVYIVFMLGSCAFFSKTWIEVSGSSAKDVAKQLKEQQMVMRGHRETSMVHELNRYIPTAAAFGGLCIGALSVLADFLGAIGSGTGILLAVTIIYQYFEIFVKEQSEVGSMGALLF
# Chain of Sec61α in U87-MG glioblastoma cells (P60468 2-96 partner limits assumed): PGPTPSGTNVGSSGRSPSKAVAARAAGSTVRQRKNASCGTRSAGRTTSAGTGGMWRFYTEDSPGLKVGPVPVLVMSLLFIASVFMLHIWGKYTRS
# Chain of Sec61α in U87-MG glioblastoma cells (P60059 whole entry partner): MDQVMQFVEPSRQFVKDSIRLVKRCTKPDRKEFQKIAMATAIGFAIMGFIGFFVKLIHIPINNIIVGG
# [2] = test system: HCT116 cells; test: Cell viability, Alamar Blue assay; format: cell-based, human; settings: HCT116, 72 h, 0.1% DMSO (Figure 1D), read-out: IC50
# Method: Figure 1 Cytotoxicity of synthetic and Pra-containing coibamides. (A) Structure of CbA. (B) Human MDA-MB-231 breast cancer cells were treated with increasing concentrations of synthetic CbA or vehicle (0.1% DMSO) and cell viability assessed at 72 h by an MTS end-point assay. (C) Structure of Photo-CbA. (D) Human HCT116 cells were treated with increasing concentrations of synthetic or photo-CbA in 0.1% DMSO, and cell viability assessed at 72 h by Alamar Blue assay. TEXT PRINTED IN THE PICTURE: (B) CbA: MDA-MB-231 cell line: IC50(nM): 1.6 | (D) CbA: HCT 116 cell line: IC50(nM): 29.2 | (D) Photo-CbA: HCT 116 cell line: IC50(nM): 6.5
# Figure 5 CbA mode of inhibition is specific compared to known Sec61 inhibitors. (A) Cell viability was measured by Alamar Blue assay (mean ± SD, n = 4, all cell lines assayed simultaneously) for HCT-116 cell lines isolated on the basis of CbA resistance in the presence of concentration series of indicated compounds. (B) Cell viability was measured by Alamar Blue assay (mean ± SD, n = 4, all cell lines assayed simultaneously) for HEK293FRT cells stably expressing Sec61α mutants in the presence of concentration series of indicated compounds. (C) Comparison of published NCI60 data for CbA,[3] AprA,[11] and IpoF.[33] The heat map was derived by plotting each GI50 value divided by the median GI50 for that compound. X indicates a cell line that was not tested. Closed arrowhead indicates cell lines with most notable differences across the three compounds. […]
# A431, HEK293T, and HEK293FRT cells were cultured in DMEM supplemented with 10% FBS. […] Viability was estimated by the addition of Alamar Blue (Life Technologies) and measuring fluorescence after a further 4 h. […]
# [3] = test system: A549 human lung adenocarcinoma cells; settings: 72 h
SMILES,IC50 [3],further results
NCC(=O)Nc1ccc(-n2nc(C(F)(F)F)cc2-c2ccc3c(ccc4ccccc43)c2)cc1 [OSU-03012],–,"Sec61α detection at 60–66 °C (melting curve) ([1]; 45 to 72 °C for 3 min, 3 μM OSU-03012, 1 h): relatively weak immunoreactivity; stabilization of Sec61α, isothermal dose–response ([1]; 51 °C for 3 min, OSU-03012 0.03 nM to 10 μM): no apparent stabilization"
C#CC[C@@H](C(=O)N(C)[C@@H](CC(C)C)C(=O)N(C)[C@@H]1C(=O)N(C)[C@@H](COC)C(=O)N(C)[C@@H]([C@@H](C)CC)C(=O)N[C@@H](C)C(=O)N(C)[C@@H](CC(C)C)C(=O)N[C@@H](Cc2ccc(C3(C(F)(F)F)N=N3)cc2)C(=O)N(C)[C@H](C)C(=O)O[C@@H]1C)N(C)C(=O)[C@H](OC(=O)[C@H](C(C)C)N(C)C)C(C)C [Photo-CbA] (NMe2Val-[dHiv][NMePra][NMeL][NMeT][NMeS](Me)[NMeI]A[NMeL][Phe(4-CF3-diazirinyl)][dNMeA]; ester 4-C),–,IC50 [2]: 6.5 nM
C#CC[C@@H](C(=O)N(C)[C@@H](CC(C)C)C(=O)N(C)[C@@H]1C(=O)N(C)[C@@H](COC)C(=O)N(C)[C@@H]([C@@H](C)CC)C(=O)N[C@@H](C)C(=O)N(C)[C@@H](CC(C)C)C(=O)N[C@@H](Cc2ccc(OC)cc2)C(=O)N(C)[C@H](C)C(=O)O[C@@H]1C)N(C)C(=O)[C@H](OC(=O)[C@H](C(C)C)N(C)C)C(C)C [R3 = propargyl] (NMe2Val-[dHiv][NMePra][NMeL][NMeT][NMeS](Me)[NMeI]A[NMeL]Y(Me)[dNMeA]; ester 4-C),1.7 ± 0.3 nM,–
C#CC[C@@H](C(=O)N(C)[C@@H]1C(=O)N(C)[C@@H](COC)C(=O)N(C)[C@@H]([C@@H](C)CC)C(=O)N[C@@H](C)C(=O)N(C)[C@@H](CC(C)C)C(=O)N[C@@H](Cc2ccc(OC)cc2)C(=O)N(C)[C@H](C)C(=O)O[C@@H]1C)N(C)C(=O)[C@H](COC)N(C)C(=O)[C@H](OC(=O)[C@H](C(C)C)N(C)C)C(C)C [R4 = propargyl] (NMe2Val-[dHiv][NMeS](Me)[NMePra][NMeT][NMeS](Me)[NMeI]A[NMeL]Y(Me)[dNMeA]; ester 4-C),3.7 ± 0.5 nM,–
C#CC[C@H]1C(=O)N(C)[C@@H]([C@@H](C)CC)C(=O)N[C@@H](C)C(=O)N(C)[C@@H](CC(C)C)C(=O)N[C@@H](Cc2ccc(OC)cc2)C(=O)N(C)[C@H](C)C(=O)O[C@H](C)[C@H](N(C)C(=O)[C@H](CC(C)C)N(C)C(=O)[C@H](COC)N(C)C(=O)[C@H](OC(=O)[C@H](C(C)C)N(C)C)C(C)C)C(=O)N1C [R6 = propargyl] (NMe2Val-[dHiv][NMeS](Me)[NMeL][NMeT][NMePra][NMeI]A[NMeL]Y(Me)[dNMeA]; ester 4-C),2 ± 0.9 nM,–
C#CC[C@H]1C(=O)N[C@@H](C)C(=O)N(C)[C@@H](CC(C)C)C(=O)N[C@@H](Cc2ccc(OC)cc2)C(=O)N(C)[C@H](C)C(=O)O[C@H](C)[C@H](N(C)C(=O)[C@H](CC(C)C)N(C)C(=O)[C@H](COC)N(C)C(=O)[C@H](OC(=O)[C@H](C(C)C)N(C)C)C(C)C)C(=O)N(C)[C@@H](COC)C(=O)N1C [R7 = propargyl] (NMe2Val-[dHiv][NMeS](Me)[NMeL][NMeT][NMeS](Me)[NMePra]A[NMeL]Y(Me)[dNMeA]; ester 4-C),9.3 ± 3.4 nM,–
C#CC[C@@H]1NC(=O)[C@H]([C@@H](C)CC)N(C)C(=O)[C@H](COC)N(C)C(=O)[C@@H](N(C)C(=O)[C@H](CC(C)C)N(C)C(=O)[C@H](COC)N(C)C(=O)[C@H](OC(=O)[C@H](C(C)C)N(C)C)C(C)C)[C@@H](C)OC(=O)[C@@H](C)N(C)C(=O)[C@H](Cc2ccc(OC)cc2)NC(=O)[C@H](CC(C)C)N(C)C1=O [R8 = propargyl] (NMe2Val-[dHiv][NMeS](Me)[NMeL][NMeT][NMeS](Me)[NMeI][Pra][NMeL]Y(Me)[dNMeA]; ester 4-C),66 ± 15 nM,–
C#CC[C@H]1C(=O)N[C@@H](Cc2ccc(OC)cc2)C(=O)N(C)[C@H](C)C(=O)O[C@H](C)[C@H](N(C)C(=O)[C@H](CC(C)C)N(C)C(=O)[C@H](COC)N(C)C(=O)[C@H](OC(=O)[C@H](C(C)C)N(C)C)C(C)C)C(=O)N(C)[C@@H](COC)C(=O)N(C)[C@@H]([C@@H](C)CC)C(=O)N[C@@H](C)C(=O)N1C [R9 = propargyl] (NMe2Val-[dHiv][NMeS](Me)[NMeL][NMeT][NMeS](Me)[NMeI]A[NMePra]Y(Me)[dNMeA]; ester 4-C),19 ± 7.6 nM,–
